Assay type in all cases: functional
In assay [1] the test system is TK-10. In words: Growth inhibition of human TK10 cells at 10 uM. Conditions: read-out: GI.
Assay [2] concerns UO-31. In words: Growth inhibition of human UO31 cells at 10 uM. Conditions: read-out: GI.
Assay [3] in a line: Growth inhibition of human NCI60 cells.
In assay [4] the test system is K562. In words: Growth inhibition of human K562 cells. Particulars: for CC50: read-out: LC50 (the source's name).
In assay [5] the test system is HOP-92. The assay is described as follows: Growth inhibition of human HOP92 cells. Conditions: for CC50: read-out: LC50 (the source's name).
For assay [6], the system named is NCI-H226. In words: Growth inhibition of human NCI-H226 cells.
The subject of assay [7] is NCI-H460. The assay is described as follows: Growth inhibition of human NCI-H460 cells.
Assay [8] relates to COLO 205. In words: Growth inhibition of human COLO205 cells. Conditions: for CC50: read-out: LC50 (the source's name).
For assay [9], the system named is SF-295. In words: Growth inhibition of human SF295 cells. Conditions: for CC50: read-out: LC50 (the source's name).
In assay [10] the test system is SK-MEL-2. The assay is described as follows: Growth inhibition of human SK-MEL-2 cells. Particulars: for CC50: read-out: LC50 (the source's name).
Assay [11] has as its system UACC-62. The assay is described as follows: Growth inhibition of human UACC62 cells.
Assay [12] concerns IGROV-1. In words: Growth inhibition of human IGROV1 cells. Particulars: for CC50: read-out: LC50 (the source's name).
Assay [13] relates to OVCAR-4. The assay is described as follows: Growth inhibition of human OVCAR4 cells. Conditions: for CC50: read-out: LC50 (the source's name).
Assay [14] deals with OVCAR-5. The assay is described as follows: Growth inhibition of human OVCAR5 cells. Particulars: for CC50: read-out: LC50 (the source's name).
In assay [15] the test system is A498. The assay is described as follows: Growth inhibition of human A498 cells. Conditions: for CC50: read-out: LC50 (the source's name).
The subject of assay [16] is CAKI-1. The assay is described as follows: Growth inhibition of human Caki1 cells.
For assay [17], the system named is TK-10. The assay is described as follows: Growth inhibition of human TK10 cells. Conditions: for CC50: read-out: LC50 (the source's name).
Assay [18] relates to T47D. The assay is described as follows: Growth inhibition of human T47D cells. Conditions: for CC50: read-out: LC50 (the source's name).
Assay [19] relates to MDA-MB-468. In words: Growth inhibition of human MDA-MB-468 cells. Conditions: for CC50: read-out: LC50 (the source's name).
Assay [20] relates to RXF 393. The assay is described as follows: Growth inhibition of human RXF393 cells at 10 uM. Conditions: read-out: GI.

This note sets out measurements from ChEMBL document CHEMBL1136890, “Design, synthesis and anticancer activities of hybrids of indole and barbituric acids--identification of highly promising leads” (2009).

SMILES strings stand for the structures. Some results are limits rather than exact numbers.

For `O=C1NC(=O)C(=Cc2cn(Cc3ccccc3)c3ccccc23)C(=O)N1`, the inhibition of growth at 10 µM in [1] came out at 71%; in assay [2], 29%. The GI50 came out at 7.5 µM in [3]; 3.1 µM in assay [4]; 1.5 µM in assay [5]; 5.4 µM in [6]; 0.3 µM in assay [7]; 1.4 µM in assay [8]. In addition, the GI50 was found to be 3.3 µM in [9]; 2.9 µM in assay [10]; 1.6 µM in [11]; 0.48 µM in assay [12]; 2 µM in [13]; 0.3 µM in assay [14]. Also, the GI50 in assay [15] turned out to be 0.03 µM; in assay [16], 4.6 µM; in assay [17] it was 2 µM; in [18] it was 4.5 µM; in assay [19], 0.1 µM. Also, the TGI in [4] was found to be 23 µM; in [5], 15 µM; in assay [6], 28 µM; in assay [7], 16.5 µM; in [8], 10.9 µM; in assay [9] it was 70.7 µM. Besides, the TGI in assay [10] was found to be 23.4 µM; in assay [11] it was 16.5 µM; in assay [12] it was 10.4 µM; in assay [13] it was 44 µM; in assay [14], 3.8 µM; in assay [15], 0.26 µM. The TGI was 25.7 µM in assay [16], 8.3 µM in assay [17], 22.3 µM in assay [18] and 0.38 µM in assay [19]. The CC50 in assay [4] is more than 100 µM; in assay [5], 58.8 µM; in assay [8] it was 41.6 µM; in assay [9], more than 100 µM; in assay [10], more than 100 µM; in assay [12], 63 µM. For the same compound, the CC50 in assay [13] is more than 100 µM; in assay [14], 39.8 µM; in assay [15] it was 1.09 µM; in assay [17], more than 100 µM; in assay [18], 95 µM; in assay [19] it was more than 100 µM. The LC50 in [6] was more than 100 µM; in [7] it was 63 µM; in assay [11] it was more than 100 µM; in assay [16] it was 93 µM.
For the compound `CN1C(=O)C(=Cc2cn(C(=O)c3ccccc3)c3ccccc23)C(=O)N(C)C1=O`, the inhibition of growth at 10 µM is 36% in [2] and 55% in [20].
Turning to `O=C1NC(=O)C(=Cc2cn(C(=O)c3ccc(Cl)cc3)c3ccccc23)C(=O)N1`, in assay [2], the inhibition of growth at 10 µM was 22%.
Consider `O=C1NC(=O)C(=Cc2c[nH]c3ccccc23)C(=O)N1`, for which, in assay [2], the inhibition of growth at 10 µM amounted to 39%.
On to `CN1C(=O)C(=Cc2cn(C(=O)c3ccc(Cl)cc3)c3ccccc23)C(=O)N(C)C1=O`, for which the inhibition of growth at 10 µM in [20] is 33%.
Regarding `O=c1[nH]cc(F)c(=O)[nH]1` [FLUOROURACIL], halving of growth in assay [3] (GI50) required 17.7 µM.
For `CN1C(=O)C(=Cc2c[nH]c3ccccc23)C(=O)N(C)C1=O`, the inhibition of growth at 10 µM in assay [2] came to 33%.
Same read-out and setting: for `Cc1ccc(S(=O)(=O)n2cc(C=C3C(=O)NC(=O)NC3=O)c3ccccc32)cc1` the value was 32%.
In turn, `COc1ccc2c(c1)c(CC(=O)O)c(C)n2C(=O)c1ccc(Cl)cc1` [INDOMETHACIN] had a GI50 in assay [3] of 64.3 µM.
Consider `Cc1ccc(S(=O)(=O)n2cc(C=C3C(=O)N(C)C(=O)N(C)C3=O)c3ccccc32)cc1`, for which the inhibition of growth at 10 µM in [2] came out at 41%; in assay [20], 52%.
In the case of `O=C1NC(=O)C(=Cc2cn(C(=O)c3ccccc3)c3ccccc23)C(=O)N1`, the inhibition of growth at 10 µM in assay [2] stood at 36%; in [20], 55%.
Take `CN1C(=O)C(=Cc2cn(Cc3ccccc3)c3ccccc23)C(=O)N(C)C1=O`: the inhibition of growth at 10 µM came to 95% in assay [1], 36% in [2] and 43% in assay [20]. Also, the GI50 in assay [3] worked out at 13.8 µM; in [4] it was 4.3 µM; in [5], 8.3 µM; in assay [6], 3.4 µM; in assay [7] it was 4.1 µM; in [8], 0.7 µM. Further, the GI50 in [9] turned out to be 1.1 µM; in [10], 3 µM; in [11], 1 µM; in assay [12] it was 0.06 µM; in assay [13], 6.1 µM; in [14] it was 0.1 µM. The GI50 in [15] was 0.2 µM; in assay [16], 0.5 µM; in assay [17], 3.1 µM; in [18], 5 µM; in [19] it was 0.02 µM. Further, the TGI in assay [4] is more than 100 µM; in assay [5], 50 µM; in assay [6], 27 µM; in [7] it was more than 100 µM; in assay [8], 9.1 µM; in assay [9], more than 100 µM. For the same compound, the total growth inhibition concentration (TGI) in [10] was 45.7 µM; in assay [11] it was 12.5 µM; in [12] it was 0.26 µM; in [13], more than 100 µM; in assay [14], 0.67 µM; in assay [15] it was 0.64 µM. Besides, the TGI in [16] was 6.4 µM; in assay [17], 57.5 µM; in assay [18], more than 100 µM; in assay [19], 0.06 µM. For the same compound, the CC50 is more than 100 µM in assay [4]; more than 100 µM in [5]; more than 100 µM in [8]; more than 100 µM in assay [9]; more than 100 µM in assay [10]; 0.85 µM in assay [12]. The CC50 was more than 100 µM in [13]; more than 100 µM in assay [14]; 2.29 µM in assay [15]; more than 100 µM in [17]; more than 100 µM in [18]; 0.69 µM in [19]. Moreover, the LC50 in assay [6], in assay [7], in assay [11] and in assay [16] was more than 100 µM throughout.
